Assay results published in patent US10301280B2 (Plexxikon Inc., priority 2012, dated 2019).

Tests used:
c-kit mutant D816V = c-kit mutant D816V (Homo sapiens (Human), UniProt P10721, D816V/DEL694-753); test: c-Kit mutant D816V biochemical assay (AlphaScreen); settings: c-kit D816V biochemical inhibitory activity
In short: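 His-tagged c-Kit D816V kinase domain (551-934, Δ694-753, E. coli) phosphorylating 30 nM biotin-(E4Y)10 at 10 μM ATP in HEPES pH 7.2 with Mg/Mn, 5% DMSO, 30 min at room temperature. PY20-acceptor/streptavidin-donor AlphaScreen detection after EDTA stop. IC50 from 8-point 1:3 titration.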

[1] = tested on: BaF3-FL KIT D816V or BaF3-FL KIT V560G/D816V cell line; test: Cell-based assays of c-Kit mutant kinase activity (cell growth, ATPlite); settings: at least one of the c-kit cell assays of Example 26
In short: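 BaF3 cells dependent on full-length human KIT (D816V or V560G/D816V) seeded at 1×10^4 cells/well in RPMI with 10% FBS. Eight-point 1:3 dilutions from 10 μM top final (0.2% DMSO), 3 days at 37° C., 5% CO2. ATPlite luminescence gave IC50.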

c-kit mutant D816V, sequence (P10721 other isoform, or with tags, fused parts or gaps D816V/del 694-753): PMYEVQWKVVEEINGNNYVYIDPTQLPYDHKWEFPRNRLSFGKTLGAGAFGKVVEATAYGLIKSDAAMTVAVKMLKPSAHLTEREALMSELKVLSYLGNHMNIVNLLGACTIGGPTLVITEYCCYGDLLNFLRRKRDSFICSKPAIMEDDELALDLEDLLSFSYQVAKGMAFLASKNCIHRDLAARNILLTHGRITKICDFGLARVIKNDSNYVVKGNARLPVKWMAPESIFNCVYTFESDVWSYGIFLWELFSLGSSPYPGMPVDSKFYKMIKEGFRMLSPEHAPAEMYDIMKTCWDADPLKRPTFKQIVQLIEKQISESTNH

## Cc1n[nH]c(C(=O)Nc2cnc3[nH]c(C4=CCN(S(C)(=O)=O)CC4)cc3c2)c1Cl [P-2057, 4-chloro-3-methyl-N-[2-(1-methylsulfonyl-3,6-dihydro-2H-pyridin-4-yl)-1H-pyrrolo[2,3-b]pyridin-5-yl]-1H-pyrazole-5-carboxamide]
c-kit mutant D816V
  IC50: 0.0001 to 1 µM
[1]
  IC50: < 10 µM

## Cc1cc(C(=O)Nc2cnc3[nH]c(N4CCOCC4)cc3c2)[nH]n1 [P-2058, 3-methyl-N-(2-morpholino-1H-pyrrolo[2,3-b]pyridin-5-yl)-1H-pyrazole-5-carboxamide]
c-kit mutant D816V
  IC50: 0.0001 to 1 µM
[1]
  IC50: < 10 µM

## Cc1n[nH]c(C(=O)Nc2cnc3[nH]c(-c4cnc(N5CCN(C)CC5)nc4)cc3c2)c1C [P-2160, 3,4-dimethyl-N-[2-[2-(4-methylpiperazin-1-yl)pyrimidin-5-yl]-1H-pyrrolo[2,3-b]pyridin-5-yl]-1H-pyrazole-5-carboxamide]
c-kit mutant D816V
  IC50: 0.0001 to 1 µM
[1]
  IC50: < 10 µM

## Cc1n[nH]c(C(=O)Nc2cnc3[nH]nc(-c4cccc(N5CCN(C(=O)OC(C)(C)C)CC5)c4)c3c2)c1C [P-2162, tert-butyl 4-[3-[5-[(3,4-dimethyl-1H-pyrazole-5-carbonyl)amino]-1H-pyrazolo[3,4-b]pyridin-3-yl]phenyl]piperazine-1-carboxylate]
c-kit mutant D816V
  IC50: 1 to 10 µM
[1]
  IC50: < 10 µM

## Cc1n[nH]c(C(=O)Nc2cnc3[nH]c(-c4ccnc(C(C)C)c4)cc3c2)c1C [P-2163, N-[2-(2-isopropyl-4-pyridyl)-1H-pyrrolo[2,3-b]pyridin-5-yl]-3,4-dimethyl-1H-pyrazole-5-carboxamide]
c-kit mutant D816V
  IC50: 0.0001 to 1 µM
[1]
  IC50: < 10 µM

## [2H]c1c([2H])c([2H])c(-c2cc3cc(NC(=O)c4[nH]nc(C)c4C)cnc3[nH]2)c([2H])c1[2H] [P-2164, 3,4-dimethyl-N-[2-(2,3,4,5,6-pentadeuteriophenyl)-1H-pyrrolo[2,3-b]pyridin-5-yl]-1H-pyrazole-5-carboxamide]
c-kit mutant D816V
  IC50: 0.0001 to 1 µM
[1]
  IC50: < 10 µM

## Cc1n[nH]c(C(=O)Nc2cnc3[nH]c(-c4c(C)nn(C)c4C)cc3c2)c1C [P-2165, 3,4-dimethyl-N-[2-(1,3,5-trimethylpyrazol-4-yl)-1H-pyrrolo[2,3-b]pyridin-5-yl]-1H-pyrazole-5-carboxamide]
c-kit mutant D816V
  IC50: 1 to 10 µM
[1]
  IC50: < 10 µM

## Cc1n[nH]c(C(=O)Nc2cnc3[nH]nc(-c4cccc(N5CCNCC5)c4)c3c2)c1C [P-2166, 3,4-dimethyl-N-[3-(3-piperazin-1-ylphenyl)-1H-pyrazolo[3,4-b]pyridin-5-yl]-1H-pyrazole-5-carboxamide]
c-kit mutant D816V
  IC50: 0.0001 to 1 µM
[1]
  IC50: < 10 µM

## Cc1n[nH]c(C(=O)Nc2cnc3[nH]c(-c4c(C)n[nH]c4C)cc3c2)c1C [P-2167, N-[2-(3,5-dimethyl-1H-pyrazol-4-yl)-1H-pyrrolo[2,3-b]pyridin-5-yl]-3,4-dimethyl-1H-pyrazole-5-carboxamide]
c-kit mutant D816V
  IC50: 0.0001 to 1 µM
[1]
  IC50: < 10 µM

## Cc1nn(C2COC2)cc1-c1cc2cc(NC(=O)c3[nH]nc(C)c3C)cnc2[nH]1 [P-2168, 3,4-dimethyl-N-[2-[3-methyl-1-(oxetan-3-yl)pyrazol-4-yl]-1H-pyrrolo[2,3-b]pyridin-5-yl]-1H-pyrazole-5-carboxamide]
c-kit mutant D816V
  IC50: 0.0001 to 1 µM
[1]
  IC50: < 10 µM

## Cc1n[nH]c(C(=O)Nc2cnc3[nH]c(-c4ccc(F)c(-c5nn[nH]n5)c4)cc3c2)c1C [P-2174, N-[2-[4-fluoro-3-(2H-tetrazol-5-yl)phenyl]-1H-pyrrolo[2,3-b]pyridin-5-yl]-3,4-dimethyl-1H-pyrazole-5-carboxamide]
c-kit mutant D816V
  IC50: 0.0001 to 1 µM
[1]
  IC50: < 10 µM

## Cc1n[nH]c(C(=O)Nc2cnc3[nH]c(-c4cccnc4C(F)(F)F)cc3c2)c1C [P-2176, 3,4-dimethyl-N-[2-[2-(trifluoromethyl)-3-pyridyl]-1H-pyrrolo[2,3-b]pyridin-5-yl]-1H-pyrazole-5-carboxamide]
c-kit mutant D816V
  IC50: 0.0001 to 1 µM
[1]
  IC50: < 10 µM

## CCc1cc(-c2cc3cc(NC(=O)c4[nH]nc(C)c4C)cnc3[nH]2)ccn1 [P-2177, N-[2-(2-ethyl-4-pyridyl)-1H-pyrrolo[2,3-b]pyridin-5-yl]-3,4-dimethyl-1H-pyrazole-5-carboxamide]
c-kit mutant D816V
  IC50: 0.0001 to 1 µM
[1]
  IC50: < 10 µM

## CCc1ccc(-c2cc3cc(NC(=O)c4[nH]nc(C)c4C)cnc3[nH]2)cn1 [P-2178, N-[2-(6-ethyl-3-pyridyl)-1H-pyrrolo[2,3-b]pyridin-5-yl]-3,4-dimethyl-1H-pyrazole-5-carboxamide]
c-kit mutant D816V
  IC50: 0.0001 to 1 µM
[1]
  IC50: < 10 µM

## Cc1n[nH]c(C(=O)Nc2cnc3[nH]c(-c4ccnc5c4OCCO5)cc3c2)c1C [P-2179, N-[2-(2,3-dihydro-[1,4]dioxino[2,3-b]pyridin-8-yl)-1H-pyrrolo[2,3-b]pyridin-5-yl]-3,4-dimethyl-H-pyrazole-5-carboxamide]
c-kit mutant D816V
  IC50: 0.0001 to 1 µM
[1]
  IC50: < 10 µM

## Cc1n[nH]c(C(=O)Nc2cnc3[nH]c(-c4ccccc4C(F)(F)F)cc3c2)c1C [P-2180, 3,4-dimethyl-N-[2-[2-(trifluoromethyl)phenyl]-1H-pyrrolo[2,3-b]pyridin-5-yl]-1H-pyrazole-5-carboxamide]
c-kit mutant D816V
  IC50: 0.0001 to 1 µM
[1]
  IC50: < 10 µM

## Cc1ccc(-c2cc3cc(NC(=O)c4[nH]nc(C)c4C)cnc3[nH]2)c(C)c1 [P-2181, N-[2-(2,4-dimethylphenyl)-1H-pyrrolo[2,3-b]pyridin-5-yl]-3,4-dimethyl-1H-pyrazole-5-carboxamide]
c-kit mutant D816V
  IC50: 0.0001 to 1 µM
[1]
  IC50: < 10 µM

## Cc1n[nH]c(C(=O)Nc2cnc3[nH]c(-c4ccccc4OC(F)(F)F)cc3c2)c1C [P-2182, 3,4-dimethyl-N-[2-[2-(trifluoromethoxy)phenyl]-1H-pyrrolo[2,3-b]pyridin-5-yl]-1H-pyrazole-5-carboxamide]
c-kit mutant D816V
  IC50: 0.0001 to 1 µM
[1]
  IC50: < 10 µM

## COc1cncc(-c2cc3cc(NC(=O)c4[nH]nc(C)c4C)cnc3[nH]2)c1 [P-2183, N-[2-(5-methoxy-3-pyridyl)-1H-pyrrolo[2,3-b]pyridin-5-yl]-3,4-dimethyl-1H-pyrazole-5-carboxamide]
c-kit mutant D816V
  IC50: 0.0001 to 1 µM
[1]
  IC50: < 10 µM

## Cc1cncc(-c2cc3cc(NC(=O)c4[nH]nc(C)c4C)cnc3[nH]2)c1 [P-2184, 3,4-dimethyl-N-[2-(5-methyl-3-pyridyl)-1H-pyrrolo[2,3-b]pyridin-5-yl]-1H-pyrazole-5-carboxamide]
c-kit mutant D816V
  IC50: 0.0001 to 1 µM
[1]
  IC50: < 10 µM

## Cc1n[nH]c(C(=O)Nc2cnc3[nH]c(-c4ccnc(N5CCN(S(C)(=O)=O)CC5)c4)cc3c2)c1C [P-2186, 3,4-dimethyl-N-[2-[2-(4-methylsulfonylpiperazin-1-yl)-4-pyridyl]-1H-pyrrolo[2,3-b]pyridin-5-yl]-1H-pyrazole-5-carboxamide]
c-kit mutant D816V
  IC50: 0.0001 to 1 µM
[1]
  IC50: < 10 µM

## Cc1n[nH]c(C(=O)Nc2cnc3[nH]c(-c4ccnc(N5CCN(C(=O)C6CC6)CC5)c4)cc3c2)c1C [P-2187, N-[2-[2-[4-(cyclopropanecarbonyl)piperazin-1-yl]-4-pyridyl]-1H-pyrrolo[2,3-b]pyridin-5-yl]-3,4-dimethyl-1H-pyrazole-5-carboxamide]
c-kit mutant D816V
  IC50: 0.0001 to 1 µM
[1]
  IC50: < 10 µM

## Cc1n[nH]c(C(=O)Nc2cnc3[nH]c(-c4ccnc(N5CCN(C(=O)CC#N)CC5)c4)cc3c2)c1C [P-2189, N-[2-[2-[4-(2-cyanoacetyl)piperazin-1-yl]-4-pyridyl]-1H-pyrrolo[2,3-b]pyridin-5-yl]-3,4-dimethyl-1H-pyrazole-5-carboxamide]
c-kit mutant D816V
  IC50: 0.0001 to 1 µM
[1]
  IC50: < 10 µM

## Cc1n[nH]c(C(=O)Nc2cnc3[nH]c(-c4ccc(F)cc4OC(F)F)cc3c2)c1C [P-2268, N-[2-[2-(difluoromethoxy)-4-fluoro-phenyl]-1H-pyrrolo[2,3-b]pyridin-5-yl]-3,4-dimethyl-1H-pyrazole-5-carboxamide]
c-kit mutant D816V
  IC50: 0.0001 to 1 µM
[1]
  IC50: < 10 µM

## Cc1n[nH]c(C(=O)Nc2cnc3[nH]c(-c4cncc(C#N)c4)cc3c2)c1C [P-2270, N-[2-(5-cyano-3-pyridyl)-1H-pyrrolo[2,3-b]pyridin-5-yl]-3,4-dimethyl-1H-pyrazole-5-carboxamide]
c-kit mutant D816V
  IC50: 0.0001 to 1 µM
[1]
  IC50: < 10 µM

## Cc1n[nH]c(C(=O)Nc2cnc3[nH]c(C4=CCOCC4)cc3c2)c1C [P-2271, N-[2-(3,6-dihydro-2H-pyran-4-yl)-1H-pyrrolo[2,3-b]pyridin-5-yl]-3,4-dimethyl-1H-pyrazole-5-carboxamide]
c-kit mutant D816V
  IC50: 0.0001 to 1 µM
[1]
  IC50: < 10 µM

## Cc1n[nH]c(C(=O)Nc2cnc3[nH]c(-c4cnccc4C(N)=O)cc3c2)c1C [P-2272, 3-[5-[(3,4-dimethyl-1H-pyrazole-5-carbonyl)amino]-1H-pyrrolo[2,3-b]pyridin-2-yl]pyridine-4-carboxamide]
c-kit mutant D816V
  IC50: 0.0001 to 1 µM
[1]
  IC50: < 10 µM

## Cc1n[nH]c(C(=O)Nc2cnc3[nH]c(-c4cccc5c4OCC5)cc3c2)c1C [P-2273, N-[2-(2,3-dihydrobenzofuran-7-yl)-1H-pyrrolo[2,3-b]pyridin-5-yl]-3,4-dimethyl-H-pyrazole-5-carboxamide]
c-kit mutant D816V
  IC50: 0.0001 to 1 µM
[1]
  IC50: < 10 µM

## Cc1n[nH]c(C(=O)Nc2cnc3[nH]c(-c4cccc(N5CCNCC5)c4)cc3c2)c1C [P-2274, 3,4-dimethyl-N-[2-(3-piperazin-1-ylphenyl)-1H-pyrrolo[2,3-b]pyridin-5-yl]-1H-pyrazole-5-carboxamide]
c-kit mutant D816V
  IC50: 0.0001 to 1 µM
[1]
  IC50: < 10 µM

## Cc1cc(Cl)ccc1-c1cc2cc(NC(=O)c3[nH]nc(C)c3C)cnc2[nH]1 [P-2277, N-[2-(4-chloro-2-methyl-phenyl)-1H-pyrrolo[2,3-b]pyridin-5-yl]-3,4-dimethyl-1H-pyrazole-5-carboxamide]
c-kit mutant D816V
  IC50: 0.0001 to 1 µM
[1]
  IC50: < 10 µM

## Cc1n[nH]c(C(=O)Nc2cnc3[nH]c(-c4ccncc4Cl)cc3c2)c1C [P-2278, N-[2-(3-chloro-4-pyridyl)-H-pyrrolo[2,3-b]pyridin-5-yl]-3,4-dimethyl-1H-pyrazole-5-carboxamide]
c-kit mutant D816V
  IC50: 0.0001 to 1 µM
[1]
  IC50: < 10 µM
